Test results: ChEMBL document CHEMBL3217477, “Synthesis and biological evaluation of substituted - and -2,3-dihydrofuran naphthoquinones as potent anticandidal agents” (Medchemcomm, 2010)
Values after ≈ are worked out from the molar mass of the structure shown.

Legend:
Candida dubliniensis [1] = experiment: Antifungal activity against Candida dubliniensis assessed as growth inhibition at 250 ug/mL after 24 hrs by hole plate diffusion method; assay type: functional; settings: read-out: IZ
Candida tropicalis [2] = experiment: Antifungal activity against Candida tropicalis assessed as growth inhibition at 250 ug/mL after 24 hrs by hole plate diffusion method; assay type: functional; settings: read-out: IZ
[3] = Cytotoxicity against mouse NIH/3T3 cells assessed as dead cells at 12.5 ug/mL after 72 hrs by Alamar Blue assay relative to control; assay type: cell-based; settings: nih3t3, 72 h
Candida albicans [4] = experiment: Antifungal activity against Candida albicans assessed as growth inhibition after 24 hrs by microbroth dilution method; assay type: functional
Pichia kudriavzevii [5] = experiment: Antifungal activity against Candida krusei assessed as growth inhibition after 24 hrs by microbroth dilution method; assay type: functional
Kluyveromyces marxianus [6] = experiment: Antifungal activity against Candida kefyr assessed as growth inhibition after 24 hrs by microbroth dilution method; assay type: functional
Candida tropicalis [7] = experiment: Antifungal activity against Candida tropicalis assessed as growth inhibition after 24 hrs by microbroth dilution method; assay type: functional
Kluyveromyces marxianus [8] = experiment: Antifungal activity against Candida kefyr assessed as growth inhibition at 250 ug/mL after 24 hrs by hole plate diffusion method; assay type: functional; settings: read-out: IZ
Candida dubliniensis [9] = experiment: Antifungal activity against Candida dubliniensis assessed as growth inhibition after 24 hrs by microbroth dilution method; assay type: functional
Candida parapsilosis [10] = experiment: Antifungal activity against Candida parapsilosis assessed as growth inhibition after 24 hrs by microbroth dilution method; assay type: functional; settings: Lodderomyces parapsilosis
Pichia kudriavzevii [11] = experiment: Antifungal activity against Candida krusei assessed as growth inhibition at 250 ug/mL after 24 hrs by hole plate diffusion method; assay type: functional; settings: read-out: IZ
[12] = Hemolytic activity in Swiss mouse erythrocytes at 50 ug/mL after 1 hr by spectrophotometric analysis relative to control; assay type: ADME, cell-based, Erythrocyte; settings: read-out: Activity
Candida albicans [13] = experiment: Antifungal activity against Candida albicans ATCC 90028 assessed as growth inhibition after 24 hrs by microbroth dilution method; assay type: functional; settings: ATCC 90028, 24 h
Candida parapsilosis [14] = experiment: Antifungal activity against Candida parapsilosis assessed as growth inhibition at 250 ug/mL after 24 hrs by hole plate diffusion method; assay type: functional; settings: Lodderomyces parapsilosis, read-out: IZ
Candida albicans [15] = experiment: Antifungal activity against Candida albicans assessed as growth inhibition at 250 ug/mL after 24 hrs by hole plate diffusion method; assay type: functional; settings: read-out: IZ

SMILES	zone of inhibition at 250 µg/mL (Candida dubliniensis [1]) [mm]	zone of inhibition at 250 µg/mL (Candida tropicalis [2]) [mm]	mortality [3] [%]	MIC (Candida albicans [4]) [µM]	MIC (Pichia kudriavzevii [5]) [µM]	MIC (Kluyveromyces marxianus [6]) [µM]	MIC (Candida tropicalis [7]) [µM]	zone of inhibition at 250 µg/mL (Kluyveromyces marxianus [8]) [mm]	MIC (Candida dubliniensis [9]) [µM]	MIC (Candida parapsilosis [10]) [µM]	zone of inhibition at 250 µg/mL (Pichia kudriavzevii [11]) [mm]	hemolysis at 1 h, 50 ug/mL [12] [%]	MIC (Candida albicans [13]) [µM]	zone of inhibition at 250 µg/mL (Candida parapsilosis [14]) [mm]	zone of inhibition at 250 µg/mL (Candida albicans [15]) [mm]
O=C1C2=C(OC(c3ccc(F)cc3)C2)C(=O)c2ccccc21 (centres undefined)	2.66	3.31	0	21.2 (≈ 6.25 µg/mL)	85 (≈ 25 µg/mL)	85 (≈ 25 µg/mL)	42.5 (≈ 12.5 µg/mL)	7.28	42.5 (≈ 12.5 µg/mL)	42.5 (≈ 12.5 µg/mL)	9.12	-1.95	85 (≈ 25 µg/mL)	3.86	10.3
CC1(c2ccccc2)CC2=C(O1)c1ccccc1C(=O)C2=O (centres undefined)	12.9	3.48	0	45.2 (≈ 13.1 µg/mL)	22.6 (≈ 6.57 µg/mL)	11.3 (≈ 3.28 µg/mL)	11.3 (≈ 3.28 µg/mL)	10.1	5.65 (≈ 1.64 µg/mL)	45.2 (≈ 13.1 µg/mL)	8.52	-1.2	45.2 (≈ 13.1 µg/mL)	7.34	8.41
CC1(C)CC2=C(O1)C(=O)c1ccccc1C2=O	15.2	5.63	20	0.54 (≈ 0.123 µg/mL)	13.4 (≈ 3.06 µg/mL)	27.4 (≈ 6.25 µg/mL)	3.42 (≈ 0.781 µg/mL)	18.4	13.7 (≈ 3.12 µg/mL)	110 (≈ 25 µg/mL)	14.6	2.1	54.8 (≈ 12.5 µg/mL)	9.29	21.3
CCC(C)n1ncn(-c2ccc(N3CCN(c4ccc(OCC5COC(Cn6cncn6)(c6ccc(Cl)cc6Cl)O5)cc4)CC3)cc2)c1=O (centres undefined) [ITRACONAZOLE]	19.4	23.6	–	4.42 (≈ 3.12 µg/mL)	0.7 (≈ 0.494 µg/mL)	0.08 (≈ 0.0565 µg/mL)	0.17 (≈ 0.12 µg/mL)	30.9	0.02 (≈ 0.0141 µg/mL)	0.02 (≈ 0.0141 µg/mL)	30.3	–	0.17 (≈ 0.12 µg/mL)	26	23.1
O=C1C2=C(OC3(C=CC=C3)C2)C(=O)c2ccccc21	16.6	7.8	9	2.09 (≈ 0.523 µg/mL)	12.8 (≈ 3.22 µg/mL)	52.5 (≈ 13.1 µg/mL)	3.27 (≈ 0.818 µg/mL)	9.3	3.27 (≈ 0.818 µg/mL)	13.1 (≈ 3.28 µg/mL)	10.8	5.92	13.1 (≈ 3.28 µg/mL)	0	16.6
COc1cccc2c1C(=O)c1c(O)c3c(c(O)c1C2=O)C[C@@](O)(C(=O)CO)C[C@@H]3O[C@H]1C[C@H](N)[C@H](O)[C@H](C)O1 [DOXORUBICIN]	–	–	36	–	–	–	–	–	–	–	–	–	–	–	–
Cc1ccc(C2CC3=C(O2)C(=O)c2ccccc2C3=O)cc1 (centres undefined)	2.75	7.28	0	43.1 (≈ 12.5 µg/mL)	86.2 (≈ 25 µg/mL)	86.2 (≈ 25 µg/mL)	43.1 (≈ 12.5 µg/mL)	4.27	43.1 (≈ 12.5 µg/mL)	43.1 (≈ 12.5 µg/mL)	4.94	-0.786	86.2 (≈ 25 µg/mL)	0	10.4
